Structures are written as SMILES.

For one assay, the target named is T1, M1 muscarinic receptor (Homo sapiens, UniProt P11229).
T1 construct: expressed in transfected cells; host or cells: CHO (M1-CHO)
T1 sequence (P11229 1-460): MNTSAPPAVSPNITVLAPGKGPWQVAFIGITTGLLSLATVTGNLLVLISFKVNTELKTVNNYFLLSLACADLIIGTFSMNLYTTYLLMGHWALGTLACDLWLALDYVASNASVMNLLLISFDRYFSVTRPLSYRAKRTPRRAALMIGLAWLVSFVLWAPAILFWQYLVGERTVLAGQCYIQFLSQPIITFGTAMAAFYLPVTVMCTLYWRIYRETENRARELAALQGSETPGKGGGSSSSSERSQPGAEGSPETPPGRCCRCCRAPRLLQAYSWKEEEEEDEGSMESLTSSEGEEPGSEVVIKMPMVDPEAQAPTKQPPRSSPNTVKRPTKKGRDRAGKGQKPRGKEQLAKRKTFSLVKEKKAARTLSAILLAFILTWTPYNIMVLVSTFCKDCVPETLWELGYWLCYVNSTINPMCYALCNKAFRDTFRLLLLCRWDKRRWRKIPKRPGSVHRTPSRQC
As to the kind of experiment: Functional mobilization of intracellular calcium (FLIPR) in M1-CHO cells. Format: cell-based. To be noted: Table 4; for Emax: 100% efficacy is the maximum response obtained with the Carbachol control; for M1 Activity: modulating M1 receptor. In outline:
(§1)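 FLIPR Ca2+ read, ex 488/em 540 nm, 60 s. Recombinant CHO lines (M1 or M4), dye-loaded Fluo-3 AM 60-90 min at 37° C, probenecid 1 mM, pH 7.4. Agonist: compound alone; inhibition: 15 min compound pre-incubation, then carbachol at EC80 for that subtype.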

The next assay deals with T2, M4 muscarinic receptor (Homo sapiens, UniProt P08173).
T2 construct: expressed in transfected cells; host or cells: CHO (M4-CHO)
T2 sequence (P08173 1-479): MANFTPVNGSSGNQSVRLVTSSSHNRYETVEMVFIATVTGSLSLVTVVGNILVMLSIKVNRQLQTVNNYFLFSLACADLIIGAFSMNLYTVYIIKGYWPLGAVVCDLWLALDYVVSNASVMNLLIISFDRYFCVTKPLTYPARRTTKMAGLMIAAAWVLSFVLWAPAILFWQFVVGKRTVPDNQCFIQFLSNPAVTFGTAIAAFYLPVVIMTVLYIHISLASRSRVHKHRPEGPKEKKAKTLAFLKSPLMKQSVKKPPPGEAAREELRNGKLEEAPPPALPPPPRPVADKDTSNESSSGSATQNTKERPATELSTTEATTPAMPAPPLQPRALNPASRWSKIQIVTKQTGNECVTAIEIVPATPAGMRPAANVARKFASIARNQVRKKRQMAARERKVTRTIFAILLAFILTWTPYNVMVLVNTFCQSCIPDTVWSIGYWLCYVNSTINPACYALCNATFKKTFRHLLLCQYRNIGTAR
Nature of the assay: Functional mobilization of intracellular calcium (FLIPR) in M4-CHO cells. Format: cell-based. The following applies: Table 4; for Emax: 100% efficacy is the maximum response obtained with the Carbachol control; for M4 Activity: modulating M4 receptor. In outline:
as §1
(In general: A change in cytosolic calcium serves as a functional read-out for many receptors and channels.)

With `CN(C)C(=O)N[C@H]1CC2(CCN(C[C@@H]3C[C@H]4C=C[C@H]3C4)CC2)c2ccccc21` [compound 438], on M1 muscarinic receptor, the Emax (usually the greatest response seen or fitted, relative to the assay's reference) fell in the range of 25 to 100% and the “M1 Activity” value is on record as “xxx (activity was measured to be less than 2.0 μM)”. At M4 muscarinic receptor, the Emax was under 25% and the “M4 Activity” value is reported as “xxx (activity was measured to be less than 2.0 μM)”.

Take `CC(=O)N1CC2(CCN(C3CC4CCC(C3)N4C(=O)OCC3CC3)CC2)c2ccccc21` (stereo not drawn) [compound 439]: at M1 muscarinic receptor, the Emax lay in the range of 25 to 100% and the “M1 Activity” value is given as “xxx (activity was measured to be less than 2.0 μM)”. In addition, at M4 muscarinic receptor, the Emax was in the range of 25 to 100% and the “M4 Activity” value is recorded as “xxx (activity was measured to be less than 2.0 μM)”.

On to `CC(=O)N1CC2(CCN(C3CCN(C(=O)OC(C)C)CC3)CC2)c2ccccc21` [compound 440], for which, at M1 muscarinic receptor, the Emax fell in the range of 25 to 100% and the “M1 Activity” value is listed as “xxx (activity was measured to be less than 2.0 μM)”. At M4 muscarinic receptor, the Emax is 25 to 100% and the “M4 Activity” value is listed as “xxx (activity was measured to be less than 2.0 μM)”.

As to `CC(=O)N1CC2(CCN(C3CCN(C(C)C)CC3)CC2)c2cc(F)ccc21` [compound 441], at M1 muscarinic receptor, the Emax is under 25% and the “M1 Activity” value was “x (activity was measured to be greater than 5.0 μM)”. Further, at M4 muscarinic receptor, the Emax is under 25% and the “M4 Activity” value is “x (activity was measured to be greater than 5.0 μM)”.

`COc1cc2c(cc1OC)C1(CCN(C3CCCCCC3)CC1)C[C@@H]2NC(C)=O` [compound 442]: on M1 muscarinic receptor, the Emax was under 25% and the “M1 Activity” value is given as “x (activity was measured to be greater than 5.0 μM)”. For the same compound, on M4 muscarinic receptor, the Emax is under 25% and the “M4 Activity” value was “x (activity was measured to be greater than 5.0 μM)”.

As for `C#CCOC(=O)N1CC[C@H](CN2CCC3(CC2)CN(C(=O)N(C)C)c2ccc(F)cc23)C1` [compound 443], at M1 muscarinic receptor, the Emax was over 100% and the “M1 Activity” value is “xxx (activity was measured to be less than 2.0 μM)”. In addition, at M4 muscarinic receptor, the Emax is over 100% and the “M4 Activity” value is recorded as “xxx (activity was measured to be less than 2.0 μM)”.

Consider `CCOC(=O)N1C2CCC1CC(N1CCC3(CC1)CN(C(C)=O)c1c(C)cccc13)C2` (stereo not drawn) [compound 444], for which, at M1 muscarinic receptor, the Emax was in the range of 25 to 100%; the “M1 Activity” value is “xx (activity was measured to be between 2.0 μM and 5.0 μM)”. Further, at M4 muscarinic receptor, the Emax is 25 to 100%; the “M4 Activity” value was “xx (activity was measured to be between 2.0 μM and 5.0 μM)”.

As for `CC#CCOC(=O)N1CC[C@H](CN2CCC3(CC2)CN(C(C)=O)c2cccc(C)c23)C1` [compound 445], at M1 muscarinic receptor, the Emax lay within 25 to 100% and the “M1 Activity” value is listed as “xxx (activity was measured to be less than 2.0 μM)”. On M4 muscarinic receptor, the Emax lay in the range of 25 to 100% and the “M4 Activity” value was “xxx (activity was measured to be less than 2.0 μM)”.

For the compound `COc1ccccc1C(=O)N1CCC(N2CCC3(CC2)CN(C(=O)N(C)C)c2ccc(F)cc23)CC1` [compound 446], on M1 muscarinic receptor, the Emax was 25 to 100% and the “M1 Activity” value is “x (activity was measured to be greater than 5.0 μM)”. Moreover, at M4 muscarinic receptor, the Emax was under 25% and the “M4 Activity” value is reported as “x (activity was measured to be greater than 5.0 μM)”.

In the case of `CC(=O)N[C@H]1CCC2(CCN(C[C@@H]3C[C@H]4C=C[C@H]3C4)CC2)c2ccccc21` [compound 447], on M1 muscarinic receptor, the Emax was in the range of 25 to 100% and the “M1 Activity” value is given as “xxx (activity was measured to be less than 2.0 μM)”. At M4 muscarinic receptor, the Emax fell in the range of 25 to 100% and the “M4 Activity” value is “xxx (activity was measured to be less than 2.0 μM)”.

Consider `O=C(N[C@H]1CC2(CCN(CC3CCCCC3)CC2)c2ccccc21)C1CCCC1` [compound 448], for which, at M1 muscarinic receptor, the Emax is under 25% and the “M1 Activity” value is listed as “x (activity was measured to be greater than 5.0 μM)”. For the same compound, at M4 muscarinic receptor, the Emax was under 25% and the “M4 Activity” value is on record as “xxx (activity was measured to be less than 2.0 μM)”.

For the compound `C1=CC2CC1CC2CN1CCC2(CCCc3ccccc32)CC1` (stereo not drawn) [compound 449], at M1 muscarinic receptor, the maximum response (Emax) lay in the range of 25 to 100%; the “M1 Activity” value is “xx (activity was measured to be between 2.0 μM and 5.0 μM)”. Further, at M4 muscarinic receptor, the maximal effect (Emax) fell in the range of 25 to 100% and the “M4 Activity” value was “xxx (activity was measured to be less than 2.0 μM)”.

For `CCOC(=O)N1CCC(N2CCC3(CC2)CN(C(C)=O)c2cccc(C)c23)CC1` [compound 450], on M1 muscarinic receptor, the Emax fell in the range of 25 to 100% and the “M1 Activity” value is on record as “xxx (activity was measured to be less than 2.0 μM)”. In addition, on M4 muscarinic receptor, the maximal response (Emax) is under 25% and the “M4 Activity” value is listed as “x (activity was measured to be greater than 5.0 μM)”.

As to `Cc1nsc(N2CC3(CCN(C4CC5CCC(C4)N5c4nc(C)ns4)CC3)c3ccccc32)n1` (stereo not drawn) [compound 451], at M1 muscarinic receptor, the Emax was in the range of 25 to 100% and the “M1 Activity” value is on record as “xxx (activity was measured to be less than 2.0 μM)”. On M4 muscarinic receptor, the Emax was 25 to 100% and the “M4 Activity” value is recorded as “xxx (activity was measured to be less than 2.0 μM)”.

With `CC(=O)N[C@H]1CCC2(CCN(CCCC3CCCCC3)CC2)c2ccccc21` [compound 452], at M1 muscarinic receptor, the maximal response (Emax) lay in the range of 25 to 100% and the “M1 Activity” value is “xxx (activity was measured to be less than 2.0 μM)”. Besides, on M4 muscarinic receptor, the Emax is under 25% and the “M4 Activity” value is on record as “x (activity was measured to be greater than 5.0 μM)”.

For `C#CCOC(=O)N1CCC(N2CCC3(CC2)CN(C(C)=O)c2cccc(C)c23)CC1` [compound 453], at M1 muscarinic receptor, the Emax was 25 to 100% and the “M1 Activity” value is “xxx (activity was measured to be less than 2.0 μM)”. Besides, at M4 muscarinic receptor, the Emax was under 25% and the “M4 Activity” value is “x (activity was measured to be greater than 5.0 μM)”.

Take `CCC(=O)CCN1CCC(N2CCC3(CC2)CN(C(C)=O)c2ccc(F)cc23)CC1` [compound 454]: on M1 muscarinic receptor, the Emax is under 25% and the “M1 Activity” value is given as “x (activity was measured to be greater than 5.0 μM)”. On M4 muscarinic receptor, the maximal response (Emax) was under 25% and the “M4 Activity” value is “x (activity was measured to be greater than 5.0 μM)”.

`CCC#CCOC(=O)N1CC[C@H](CN2CCC3(CC2)CN(C(C)=O)c2cccc(C)c23)C1` [compound 455]: at M1 muscarinic receptor, the Emax lay in the range of 25 to 100% and the “M1 Activity” value is given as “xxx (activity was measured to be less than 2.0 μM)”. Moreover, on M4 muscarinic receptor, the Emax is 25 to 100% and the “M4 Activity” value is recorded as “xxx (activity was measured to be less than 2.0 μM)”.

Regarding `CCCC#CCOC(=O)N1CCC(N2CCC3(CC2)CN(C(=O)N(C)C)c2ccc(F)cc23)CC1` [compound 456], at M1 muscarinic receptor, the Emax was 25 to 100% and the “M1 Activity” value is recorded as “xxx (activity was measured to be less than 2.0 μM)”. On M4 muscarinic receptor, the Emax is 25 to 100% and the “M4 Activity” value is “xxx (activity was measured to be less than 2.0 μM)”.

`CN(C)C(=O)N1CC2(CCN(C3CCN(c4ccncc4)CC3)CC2)c2cc(F)ccc21` [compound 458]: on M1 muscarinic receptor, the Emax is under 25% and the “M1 Activity” value is “x (activity was measured to be greater than 5.0 μM)”. At M4 muscarinic receptor, the Emax is under 25% and the “M4 Activity” value is on record as “x (activity was measured to be greater than 5.0 μM)”.

Regarding `COCCOC(=O)N1CC[C@@H](CN2CCC3(CC2)CN(C(C)=O)c2ccccc23)C1` [compound 459], at M1 muscarinic receptor, the Emax is 25 to 100% and the “M1 Activity” value is on record as “x (activity was measured to be greater than 5.0 μM)”. At M4 muscarinic receptor, the Emax is under 25%; the “M4 Activity” value is “xx (activity was measured to be between 2.0 μM and 5.0 μM)”.

Regarding `COCCN1CC2(CCN(C3CCN(C(=O)OCCF)CC3)CC2)c2cc(F)ccc21` [compound 460], at M1 muscarinic receptor, the Emax lay in the range of 25 to 100% and the “M1 Activity” value is given as “xxx (activity was measured to be less than 2.0 μM)”. Also, on M4 muscarinic receptor, the Emax lay within 25 to 100% and the “M4 Activity” value is “xxx (activity was measured to be less than 2.0 μM)”.

Take `CC(=O)N1CC2(CCN(C3CCN(c4cncc(-c5ccccc5F)n4)CC3)CC2)c2ccccc21` [compound 461]: at M1 muscarinic receptor, the Emax fell in the range of 25 to 100%; the “M1 Activity” value was “xx (activity was measured to be between 2.0 μM and 5.0 μM)”. At M4 muscarinic receptor, the Emax is under 25% and the “M4 Activity” value is on record as “x (activity was measured to be greater than 5.0 μM)”.

Consider `CC(=O)CN1CC2(CCN(C3CC4CCC(C4)C3)CC2)c2cc(F)ccc21` (stereo not drawn) [compound 462], for which, on M1 muscarinic receptor, the Emax was 25 to 100% and the “M1 Activity” value is on record as “xxx (activity was measured to be less than 2.0 μM)”. Moreover, at M4 muscarinic receptor, the Emax lay within 25 to 100% and the “M4 Activity” value was “xxx (activity was measured to be less than 2.0 μM)”.

These data come from patent US7786141B2 (Vertex Pharmaceuticals Incorporated, priority 2004, dated 2010).
